This passage reports IC50 results from US8933099B2, “Monocyclic pyridine derivative” (Eisai R&D Management Co., Ltd., priority 2013, dated 2015).

Experiment [1] has as its system human stomach cancer cell line SNU-16 (FGFR2 gene amplification). The experiment is described as follows: SNU-16 growth inhibition assay. Format: cell-based. The procedure:
In this assay, the growth inhibitory activity of a test substance in a human stomach cancer cell line harboring FGFR2 gene amplification is measured.
Then, 10 μL of Cell Counting Kit-8 (Dojindo Laboratories, CK04) was added to each well, and the resultant was incubated for 1 to 2 hours in a 5% CO2 incubator (37° C.) to cause a color reaction. The absorbance value was measured with ENVISION™ (PerkinElmer Co., Ltd.) at 450 nm.

The test system of experiment [2] is normal human umbilical vein endothelial cells (HUVEC). The experiment is described as follows: HUVEC growth inhibition assay (VEGF-induced). Format: cell-based. The procedure: The absorbance value was measured with ENVISION™ (PerkinElmer Co., Ltd.) at 450 nm. The absorbance values of the wells without adding the test substance but with VEGF addition was defined as 100% and the absorbance values of the wells with neither the test substance nor VEGF addition was defined as 0%.

[3] abbreviates: Homo sapiens, SNU-16, 72 h, read-out: SNU-16 (IC50 (nM)), cell growth, 3 days, Cell Counting Kit-8.
The mark [4] stands for this setting: Homo sapiens, HUVEC, 72 h, read-out: HUVEC (IC50 (nM)), growth in the presence of VEGF 10 ng/mL, 3 days.
[5] abbreviates: read-out: SNU-16 (IC50 (nM)), cell growth, 3 days, Cell Counting Kit-8.
[6] abbreviates: read-out: HUVEC (IC50 (nM)), growth in the presence of VEGF 10 ng/mL, 3 days.

Read-outs that look alike come from different tables or passages of the source.

With `CNC(=O)n1ccc2cc(Oc3ccnc(NC(=O)c4ccc(C5CCN(C[C@H](C)O)CC5)cc4)c3)c(OC(C)C)cc21` [Example 66], the results for the IC50 in experiment [1] (setting [3]) and in experiment [2] (setting [4]) were 16.1 nM and 203 nM, respectively.
In the same order, the values of `CNC(=O)n1ccc2cc(Oc3ccnc(NC(=O)c4ccc(C5CCN(CCO)CC5)cc4)c3)c(OC(C)C)cc21` [Example 67] are 17.6 nM and 223 nM.
For `CCN1CCC(c2ccc(C(=O)Nc3cc(Oc4cc5ccn(C(=O)NC)c5cc4OC(C)C)ccn3)cc2)CC1` [Example 68], the IC50 worked out at 20 nM in experiment [1] (setting [3]) and 256 nM in experiment [2] (setting [4]).
Take `CNC(=O)n1ccc2cc(Oc3ccnc(NC(=O)c4ccc(CN5CCC(O)CC5)cc4)c3)c(OC(C)C)cc21` [Example 70]: the IC50 was 22.4 nM in experiment [1] (setting [3]) and 610 nM in experiment [2] (setting [4]).
`CNC(=O)n1ccc2cc(Oc3ccnc(NC(=O)c4ccc(CN5CC[C@H](O)C5)cc4)c3)c(OCCCF)cc21` [Example 71]: the figures for the IC50 in experiment [1] (setting [3]) and in experiment [2] (setting [4]) were 17 nM and 648 nM, respectively.
In the same order, the values of `CNC(=O)n1ccc2cc(Oc3ccnc(NC(=O)c4ccc(CN5CC[C@@H](O)C5)cc4)c3)c(OCCCF)cc21` [Example 72] are 17.1 nM and 681 nM.
In the same order, the values of `CNC(=O)n1ccc2cc(Oc3ccnc(NC(=O)c4ccc(CN5CCC(O)CC5)cc4)c3)c(OCCCF)cc21` [Example 73] are 17.4 nM and 703 nM.
`CNC(=O)n1ccc2cc(Oc3ccnc(NC(=O)c4ccc(C5CCN(C[C@@H](C)O)CC5)cc4)c3)c(OCCCF)cc21` [Example 74]: the IC50 in experiment [1] (setting [3]) worked out at 8.4 nM; in experiment [2] (setting [4]), 198 nM.
In the same order, the values of `CNC(=O)n1ccc2cc(Oc3ccnc(NC(=O)c4ccc(C5CCN(C[C@H](C)O)CC5)cc4)c3)c(OCCCF)cc21` [Example 75] are 7.3 nM and 211 nM.
In the same order, the values of `CNC(=O)n1ccc2cc(Oc3ccnc(NC(=O)c4ccc(C5CCN(C)CC5)cc4)c3)c(OCCCF)cc21` [Example 76] are 7.5 nM and 248 nM.
In the same order, the values of `CNC(=O)n1ccc2cc(Oc3ccnc(NC(=O)c4ccc(C5CCN(C(C)C)CC5)nc4)c3)c(OCCOC)cc21` [Example 77] are 9.6 nM and 1030 nM.
Regarding `CCN1CCC(c2ccc(C(=O)Nc3cc(Oc4cc5ccn(C(=O)NC)c5cc4OCCOC)ccn3)cn2)CC1` [Example 78], the IC50 in experiment [1] (setting [3]) came out at 6.2 nM; in experiment [2] (setting [4]), 835 nM.
For `CNC(=O)n1ccc2cc(Oc3ccnc(NC(=O)c4ccc(C5CN(C[C@@H](C)O)C5)cc4)c3)c(OCCOC)cc21` [Example 80], the IC50 in experiment [1] (setting [3]) is 3.8 nM; in experiment [2] (setting [4]) it was 182 nM.
As to `CNC(=O)n1ccc2cc(Oc3ccnc(NC(=O)c4ccc(C5CN(C[C@H](C)O)C5)cc4)c3)c(OCCOC)cc21` [Example 81], the IC50 was 3.8 nM in experiment [1] (setting [3]) and 126 nM in experiment [2] (setting [4]).
In the same order, the values of `CNC(=O)n1ccc2cc(Oc3ccnc(NC(=O)c4ccc(CN5CCC[C@@H]5CO)s4)c3)c(OCCOC)cc21` [Example 82] are 6.2 nM and 264 nM.
In the same order, the values of `CNC(=O)n1ccc2cc(Oc3ccnc(NC(=O)c4ccc(CN5CC[C@H](O)C5)s4)c3)c(OCCOC)cc21` [Example 84] are 6.2 nM and 255 nM.
In the same order, the values of `CNC(=O)n1ccc2cc(Oc3ccnc(NC(=O)c4ccc(CN5CC[C@@H](O)C5)s4)c3)c(OCCOC)cc21` [Example 85] are 6.9 nM and 235 nM.
As to `CNC(=O)n1ccc2cc(Oc3ccnc(NC(=O)c4ccc(CN5CCC(O)CC5)s4)c3)c(OCCOC)cc21` [Example 86], the IC50 in experiment [1] (setting [3]) was 6.2 nM; in experiment [2] (setting [4]), 250 nM.
For `CCN1CC(c2ccc(C(=O)Nc3cc(Oc4cc5ccn(C(=O)NC)c5cc4OCCOC)ccn3)cc2)C1` [Example 89], the IC50 in experiment [1] (setting [3]) was found to be 6.5 nM; in experiment [2] (setting [4]), 416 nM.
For the molecule `CNC(=O)n1ccc2cc(Oc3ccnc(NC(=O)c4ccc(C5CCN(C[C@@H](C)O)CC5)cc4)c3)c(OCCOC)cc21` [Example 90], the results for the IC50 in experiment [1] (setting [3]) and in experiment [2] (setting [4]) were 6.1 nM and 203 nM, respectively.
In the same order, the values of `CNC(=O)n1ccc2cc(Oc3ccnc(NC(=O)c4ccc(C5CCN(C[C@H](C)O)CC5)cc4)c3)c(OCCOC)cc21` [Example 91] are 5.3 nM and 191 nM.
For the molecule `CCN1CCC(c2ccc(C(=O)Nc3cc(Oc4cc5ccn(C(=O)NC)c5cc4OCCOC)ccn3)cc2)CC1` [Example 92], the values for the IC50 in experiment [1] (setting [3]) and in experiment [2] (setting [4]) were 5.8 nM and 182 nM, respectively.
In the same order, the values of `CNC(=O)n1ccc2cc(Oc3ccnc(NC(=O)c4ccc(CN5CCC(O)CC5)cc4)c3)c(OCCOC)cc21` [Example 93] are 17.6 nM and 887 nM.
Take `CCOCCOc1cc2c(ccn2C(=O)NC)cc1Oc1ccnc(NC(=O)c2ccc(C3CCN(C(C)C)CC3)nc2)c1` [Example 94]: the IC50 in experiment [1] (setting [3]) amounted to 7.9 nM; in experiment [2] (setting [4]), 607 nM.
Take `CCOCCOc1cc2c(ccn2C(=O)NC)cc1Oc1ccnc(NC(=O)c2ccc(CN3CCC[C@@H]3CO)s2)c1` [Example 98]: the results for the IC50 in experiment [1] (setting [3]) and in experiment [2] (setting [4]) were 6.3 nM and 228 nM, respectively.
In the same order, the values of `CCOCCOc1cc2c(ccn2C(=O)NC)cc1Oc1ccnc(NC(=O)c2ccc(CN3CCC[C@H]3CO)s2)c1` [Example 99] are 6.3 nM and 224 nM.
`CCOCCOc1cc2c(ccn2C(=O)NC)cc1Oc1ccnc(NC(=O)c2ccc(CN3CC[C@@H](O)C3)s2)c1` [Example 100]: the figures for the IC50 in experiment [1] (setting [5]) and in experiment [2] (setting [6]) were 5.8 nM and 207 nM, respectively.
On to `CCOCCOc1cc2c(ccn2C(=O)NC)cc1Oc1ccnc(NC(=O)c2ccc(CN3CCC(O)CC3)s2)c1` [Example 101], for which the IC50 in experiment [1] (setting [3]) was determined as 6.8 nM; in experiment [2] (setting [4]), 182 nM.
As for `CCOCCOc1cc2c(ccn2C(=O)NC)cc1Oc1ccnc(NC(=O)c2ccc(C3CN(C)C3)cc2)c1` [Example 102], the figures for the IC50 in experiment [1] (setting [5]) and in experiment [2] (setting [6]) were 3.7 nM and 226 nM, respectively.
Turning to `CCOCCOc1cc2c(ccn2C(=O)NC)cc1Oc1ccnc(NC(=O)c2ccc(C3CN(C(C)C)C3)cc2)c1` [Example 103], the IC50 in experiment [1] (setting [3]) was determined as 5.4 nM; in experiment [2] (setting [4]), 296 nM.
In the same order, the values of `CCOCCOc1cc2c(ccn2C(=O)NC)cc1Oc1ccnc(NC(=O)c2ccc(CN3CCC[C@@H]3CO)cc2)c1` [Example 104] are 13.7 nM and 600 nM.
In the case of `CCOCCOc1cc2c(ccn2C(=O)NC)cc1Oc1ccnc(NC(=O)c2ccc(CN3CC[C@H](O)C3)cc2)c1` [Example 105], the results for the IC50 in experiment [1] (setting [3]) and in experiment [2] (setting [4]) were 7.8 nM and 687 nM, respectively.
In the same order, the values of `CCOCCOc1cc2c(ccn2C(=O)NC)cc1Oc1ccnc(NC(=O)c2ccc(CN3CCC(F)CC3)cc2)c1` [Example 107] are 22 nM and 907 nM.
In the same order, the values of `CCOCCOc1cc2c(ccn2C(=O)NC)cc1Oc1ccnc(NC(=O)c2ccc(CN3CCN(CC)CC3)cc2)c1` [Example 108] are 14.7 nM and 363 nM.
With `CCOCCOc1cc2c(ccn2C(=O)NC)cc1Oc1ccnc(NC(=O)c2ccc(C3CCN(C[C@@H](C)O)CC3)cc2)c1` [Example 111], the figures for the IC50 in experiment [1] (setting [3]) and in experiment [2] (setting [4]) were 5.1 nM and 195 nM, respectively.
On to `CCOCCOc1cc2c(ccn2C(=O)NC)cc1Oc1ccnc(NC(=O)c2ccc(C3CCN(C[C@H](C)O)CC3)cc2)c1` [Example 112], for which the values for the IC50 in experiment [1] (setting [3]) and in experiment [2] (setting [4]) were 3.8 nM and 202 nM, respectively.
In the same order, the values of `CCOCCOc1cc2c(ccn2C(=O)NC)cc1Oc1ccnc(NC(=O)c2ccc(CN3CCC(O)CC3)cc2)c1` [Example 115] are 11.4 nM and 616 nM.
On to `CNC(=O)n1ccc2cc(Oc3ccnc(NC(=O)c4ccc(CN5CCC[C@H]5CO)cc4)c3)c(OCCCOC)cc21` [Example 117], for which the IC50 in experiment [1] (setting [3]) stood at 16.6 nM; in experiment [2] (setting [4]), 534 nM.
Turning to `CNC(=O)n1ccc2cc(Oc3ccnc(NC(=O)c4ccc(C5CN(C[C@@H](C)O)C5)cc4)c3)c(OCCCOC)cc21` [Example 118], the IC50 in experiment [1] (setting [3]) is 8.6 nM; in experiment [2] (setting [4]), 183 nM.
In the same order, the values of `CNC(=O)n1ccc2cc(Oc3ccnc(NC(=O)c4ccc(C5CN(C[C@H](C)O)C5)cc4)c3)c(OCCCOC)cc21` [Example 119] are 11.9 nM and 242 nM.
In the same order, the values of `CNC(=O)n1ccc2cc(Oc3ccnc(NC(=O)c4ccc(CN5CC[C@@H](O)C5)cc4)c3)c(OCCCOC)cc21` [Example 121] are 14.9 nM and 518 nM.
In the same order, the values of `CNC(=O)n1ccc2cc(Oc3ccnc(NC(=O)c4ccc(CN5CCC(O)CC5)cc4)c3)c(OCCCOC)cc21` [Example 122] are 11.3 nM and 494 nM.
`CNC(=O)n1ccc2cc(Oc3ccnc(NC(=O)c4ccc(C5CCN(C[C@@H](C)O)CC5)cc4)c3)c(OCCCOC)cc21` [Example 125]: the IC50 was 7.2 nM in experiment [1] (setting [3]) and 203 nM in experiment [2] (setting [4]).
As to `CNC(=O)n1ccc2cc(Oc3ccnc(NC(=O)c4ccc(C5CCN(C[C@H](C)O)CC5)cc4)c3)c(OCCCOC)cc21` [Example 126], the IC50 in experiment [1] (setting [3]) was 6.6 nM; in experiment [2] (setting [4]), 197 nM.
For `CNC(=O)n1ccc2cc(Oc3ccnc(NC(=O)c4ccc(C5CCN(C)CC5)cc4)c3)c(OCCCOC)cc21` [Example 130], the IC50 in experiment [1] (setting [3]) stood at 6.8 nM; in experiment [2] (setting [4]) it was 254 nM.
